Laboratory results reported in article PMC6934184, “Selective DNA-PKcs inhibition extends the therapeutic index of localized radiotherapy and chemotherapy” (The Journal of Clinical Investigation, 2019).

Molecular target: T1, PLK2 (Homo sapiens, UniProt Q9NYY3)
T1 construct: purchased Thermo Fisher Scientific (Life Technologies) SelectScreen
Assay: SelectScreen Z'LYTE
Type: biochemical
How it was run: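 NU5455 was profiled across the SelectScreen Broad panel of kinase activity and binding assays. Z'LYTE reactions such as CSF1R ran at apparent Km ATP, while the Adapta CAMK1 assay used ATP listed as 10. Values are given as percent.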

T1 sequence (Q9NYY3 whole entry): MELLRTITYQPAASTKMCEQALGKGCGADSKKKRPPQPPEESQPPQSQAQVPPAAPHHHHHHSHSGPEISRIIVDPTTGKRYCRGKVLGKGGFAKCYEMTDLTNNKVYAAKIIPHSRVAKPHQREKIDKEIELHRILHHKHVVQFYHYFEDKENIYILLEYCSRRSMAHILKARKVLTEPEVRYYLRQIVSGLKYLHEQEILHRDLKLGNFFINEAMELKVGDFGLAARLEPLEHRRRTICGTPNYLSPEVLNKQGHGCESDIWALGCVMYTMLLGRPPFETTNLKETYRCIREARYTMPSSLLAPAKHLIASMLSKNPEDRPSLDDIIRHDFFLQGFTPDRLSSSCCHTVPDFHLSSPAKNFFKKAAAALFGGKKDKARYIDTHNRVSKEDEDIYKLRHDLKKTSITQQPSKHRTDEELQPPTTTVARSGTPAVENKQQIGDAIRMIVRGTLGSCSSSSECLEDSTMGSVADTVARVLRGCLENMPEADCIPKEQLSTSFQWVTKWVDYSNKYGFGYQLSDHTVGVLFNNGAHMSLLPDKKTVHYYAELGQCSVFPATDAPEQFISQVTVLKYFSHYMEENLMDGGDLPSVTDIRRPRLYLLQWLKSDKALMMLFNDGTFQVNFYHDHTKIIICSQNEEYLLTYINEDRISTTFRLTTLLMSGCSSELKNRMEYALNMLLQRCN

`CN(C(=O)CN1CCOCC1)c1ccc2sc3c(-c4cccc5c(=O)cc(N6CC7CCC(C6)O7)oc45)cccc3c2c1` [NU5455] was tested. Which inhibition at 1 µM did it give?
Its inhibition at 1 µM is 14.1%.
